Laboratory results as given in PMC9363482, “The crystal structure of Cry78Aa from Bacillus thuringiensis provides insights into its insecticidal activity” (Communications Biology, 2022).
pKd: −log10 of the molar value.

Key:
Cry78Aa (Cry78Aa1) = biological target: T1, Cry78Aa (Cry78Aa1) (Bacillus thuringiensis, UniProt A0A3S6Q0Y2); details: 20 mM Tris-HCl pH 8.0, 25 °C; one-site binding model; 50 mM sugar into 150 µM protein
T1 construct: ITC section says only 'Cry78Aa protein'

[1] = other: SDS-PAGE under mild denaturing conditions

T1 sequence (A0A3S6Q0Y2 1-359 limits assumed): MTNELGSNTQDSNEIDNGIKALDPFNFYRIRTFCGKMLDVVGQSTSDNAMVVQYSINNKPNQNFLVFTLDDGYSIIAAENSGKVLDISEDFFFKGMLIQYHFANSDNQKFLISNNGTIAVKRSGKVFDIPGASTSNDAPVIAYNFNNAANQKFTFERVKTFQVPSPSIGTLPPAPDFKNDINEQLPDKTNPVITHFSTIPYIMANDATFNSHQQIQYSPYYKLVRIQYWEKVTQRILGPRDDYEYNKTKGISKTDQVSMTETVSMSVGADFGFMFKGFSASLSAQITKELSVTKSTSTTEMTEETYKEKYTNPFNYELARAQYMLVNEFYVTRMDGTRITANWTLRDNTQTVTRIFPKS

## CC(=O)N[C@H]1C(O)O[C@H](CO)[C@H](O)[C@@H]1O (stereo partly drawn) [GalNAc]
Cry78Aa (Cry78Aa1)
  pKd: ~2.01

## OC[C@H]1O[C@@H](O[C@H]2[C@H](O)[C@@H](O)C(O)O[C@@H]2CO)[C@H](O)[C@@H](O)[C@H]1O (stereo partly drawn) [lactose]
Cry78Aa (Cry78Aa1)
  pKd: ~1.99

## Cry78Aa_(155-359)
[1]
  percent of the sample as oligomers or aggregates in 0.1% SDS: ~30% of the total sample loaded onto each lane
